Laboratory results published in BindingDB's records for doi:10.1016/S0960-894X(01)80381-4 (n/a, 1994).

Experiment: Inhibition of 10 uM ADP-induced human gel filtered platelet aggregation with 0.1 mg/mL human fibrinogen

Row | IC50 [µM] | SMILES
1 | 10000 | O=C(O)CCN1Cc2ccc(C(=O)NCCC3CCNCC3)cc2C1=O [3-[1-Oxo-6-(2-piperidin-4-yl-ethylcarbamoyl)-1,3-dihydro-isoindol-2-yl]-propionic acid]
2 | 330 | O=C(O)CCNC(=O)c1cccc(C(=O)NCC2CCNCC2)c1 [3-{3-[(Piperidin-4-ylmethyl)-carbamoyl]-benzoylamino}-propionic acid]
3 | 25 | O=C(O)CCNC(=O)c1ccc2c(c1)C(=O)N(CCC1CCNCC1)C2 [3-{[3-Oxo-2-(2-piperidin-4-yl-ethyl)-2,3-dihydro-1H-isoindole-5-carbonyl]-amino}-propionic acid(L-709780)]
4 | 2300 | O=C(O)CCNC(=O)c1ccc2c(c1)C(=O)C(CCC1CCNCC1)C2 (centres undefined) [3-{[3-Oxo-2-(2-piperidin-4-yl-ethyl)-indane-5-carbonyl]-amino}-propionic acid]
